Test results published in paper PMC11550998, “Novel 5-HT7 receptor antagonists modulate intestinal immune responses and reduce severity of colitis” (American Journal of Physiology - Gastrointestinal and Liver …, 2024).
pIC50: −log10 of the molar value.

Key:
[1] = Microsomal stability assay, human liver microsomes; type: in vitro ADME; conditions: 37°C, NADPH regenerating system, read-out: T1/2 HLM
Method: Test compounds were assessed for microsomal stability by incubating at 37°C in the presence of mouse or human liver microsomes and an NADPH regenerating system as described by Yang et al. ([16]). Microsomal protein content was adjusted to ensure accurate rates of substrate consumption. Analysis was performed by LC-MS/MS analysis.

[2] = target: CYP2D6 (Homo sapiens, UniProt P10635); test: Cytochrome P450 inhibition assay, 2D6 (fluorescent substrate); type: in vitro ADME; conditions: expressed enzyme
Method: Compounds were assessed for their ability to inhibit human cytochrome P450 3A4 using testosterone as a substrate and LC-MS/MS analysis, whereas the 2D6 and 2C9 assays used fluorescent substrates and EnVision plate reader analysis. Expressed enzymes were used to minimize nonspecific binding and membrane partitioning issues ([15]).

[3] = Administration of antagonist in the absence of DSS; type: in vivo, mice; conditions: Supplemental Fig. S2
[4] = test system: acute DSS-induced colitis; test: Acute DSS-induced colitis model; type: in vivo, C57BL/6 mice
Description: C57BL/6 (Taconic, Cambridge City, IN) for the DSS model of colitis, as well as C57BL/6 and Rag1^−/− mice (Jackson Laboratory, Bar Harbor, ME) for the T-cell transfer model, were kept in sterilized, filter-topped cages under specific pathogen-free conditions upon arrival and fed autoclaved food. Male mice aged 8–10 wk were used for all experiments. Mice were acclimatized for 7 days before the start of any experiments. All experiments were approved by the animal ethics committee of McMaster University and conducted under Canadian guidelines for animal research.
For induction of acute colitis, DSS (molecular mass 40 kDa; ICN; Biomedicals Incorporate, Solon, OH) was added to autoclaved drinking water at a final concentration of 4 or 5% wt/vol for 5 days. For the induction of chronic colitis, DSS was added to normal drinking water at a final concentration of 4% for 5 days, followed by 7 days of water. This cycle was repeated twice thereafter, with 2% DSS. Control mice received vehicle or normal drinking water.
For acute DSS-induced colitis, C576BL/6 mice were treated with MC-170073 (10 mg/kg of body wt) or vehicle (10% DMSO in normal saline) via intraperitoneal injection once daily for 6 days, starting 1 day before the beginning of DSS. In a separate experiment, C57BL/6 mice were orally administered with MC-230078 (10 mg/kg) or vehicle twice daily for 5 days, starting from the beginning of DSS. For chronic DSS-induced colitis, C57BL/6 mice were treated with MC-170073 (10 mg/kg ip) or vehicle once daily for 6 days, starting 1 day before the beginning of the third cycle. Last, for CD4^+CD45RB^high T cell-induced chronic colitis, reconstituted Rag1^−/− mice were orally administered MC-230078 (5 mg/kg or 10 mg/kg) or a vehicle twice daily for 10 days starting from week 6 post-reconstitution of T cells.
Disease activity index (DAI) is a combined score of weight loss, stool consistency, and fecal bleeding and was blindly assessed using a previously published scoring system ([19]). This scoring system was defined as follows: weight loss: 0 = no loss; 1 = 1–5%; 2 = 5–10%; 3 = 10–20%; 4 = 20%+; stool, 0 = normal; 2 = loose stool; 4 = diarrhea; and bleeding: 0 = no blood; 2 = hemoccult positive (Hemoccult II; Beckman Coulter, Fullerton, CA); and 4 = gross blood (blood around anus). DAI was measured across all days of DSS treatment. Macroscopic damage scores were blindly scored using a previously published scoring system for DSS-induced colitis ([19]).
Colonic myeloperoxidase (MPO) levels were measured following a published protocol ([19]). Briefly, colonic tissue samples were homogenized in ice-cold 50 mmol·L^−1 potassium phosphate buffer containing 0.5% hexadecyl trimethyl ammonium bromide (pH = 6.0) (Sigma). Homogenates were centrifuged, the supernatant was removed, and an aliquot was then added to a solution containing potassium phosphate buffer, O-dianisidine, and hydrogen peroxide (Sigma-Aldrich). The absorbance was measured at 450 nm by a spectrophotometer (model EL808, BioTek). MPO level was expressed in units per milligram of tissue, where 1 U is defined as the quantity of enzyme able to convert 1 μmol hydrogen peroxide to water per minute at room temperature.
Segments of the proximal colon were washed with PBS, fixed in 10% neutral-buffered formalin, washed with ethanol, and embedded in paraffin. Hematoxylin-eosin (H&E)-stained colonic tissue sections were scored using a previously published system ([19]): crypt architecture (normal = 0; severe crypt distortion with loss of entire crypts = 3), degree of inflammatory cell infiltration (normal = 0; dense inflammatory infiltrate = 3), muscle thickening (base of crypt sits on the muscularis mucosae = 0; marked muscle thickening present = 3), goblet cell depletion (absent = 0; present = 1), and crypt abscess (absent = 0; present = 1). A breakdown of scoring criteria can be seen in Supplemental Table S1. The histological damage score is the sum of each individual score. […]

[5] = 4% DSS 5 days, 10 mg/kg ip once daily 6 days
[6] = 4% DSS 5 days, 10 mg/kg ip once daily 6 days, vs vehicle-treated mice
[7] = 5% DSS 5 days, 10 mg/kg orally twice daily 5 days
[8] = 5% DSS, 10 mg/kg orally twice daily 5 days
[9] = 5% DSS, 10 mg/kg orally twice daily, day 5 post-DSS vs vehicle

Sequence of CYP2D6 (P10635 whole entry): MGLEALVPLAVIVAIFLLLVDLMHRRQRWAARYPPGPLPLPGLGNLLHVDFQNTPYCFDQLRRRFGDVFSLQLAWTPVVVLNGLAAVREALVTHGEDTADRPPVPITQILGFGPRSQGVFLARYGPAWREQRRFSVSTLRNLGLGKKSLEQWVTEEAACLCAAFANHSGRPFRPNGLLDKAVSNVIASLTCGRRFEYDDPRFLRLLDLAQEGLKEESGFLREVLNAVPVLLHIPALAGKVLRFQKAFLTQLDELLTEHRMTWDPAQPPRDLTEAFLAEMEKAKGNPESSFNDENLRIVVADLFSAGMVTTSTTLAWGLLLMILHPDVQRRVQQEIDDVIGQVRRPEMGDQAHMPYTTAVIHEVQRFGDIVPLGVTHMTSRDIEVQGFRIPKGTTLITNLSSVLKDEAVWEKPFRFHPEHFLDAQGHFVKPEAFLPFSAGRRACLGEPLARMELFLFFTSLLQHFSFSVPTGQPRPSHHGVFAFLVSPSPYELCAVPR

half-life [1]	pIC50 [2]	Structure (SMILES)	effect on body weight change, histology, or proinflammatory cytokine production [3]	colonic IL-1β level [4, 5]	colonic IL-6 level [4, 5]	colonic MPO level [4, 5]	colonic TNF-α level [4, 5]	DAI scores [4, 6]	histological damage scores [4, 6]	macroscopic scores [4, 6]	DAI [4, 7]	body weight change during DSS [4, 7]	colonic IL-1β level [4, 8]	colonic MPO level [4, 8]	histological scores [4, 9]	macroscopic scores [4, 9]
> 1 h	< 5.00	CCC1(CC)CC(CCN2CCN(c3ccc(O)cc3)CC2)OC1=O (stereo not shown) [MC-170073]	no significant effect	lower levels	lower levels	lower levels	lower levels	significantly lower	significantly less severe	lower	–	–	–	–	–	–
1 h	< 5.00	CCC1(CC)C[C@@H](CCN2CCN(c3ccc(O)cc3)CC2)OC1=O [MC-230078]	no significant effect	–	–	–	–	–	–	–	significantly lower	no significant difference	significantly lower	significantly lower	significantly lower	significantly lower
